# According to the NIST ThermoML archive (doi:10.1016/j.fluid.2009.05.005):
# ± gives the expanded uncertainty stated by the source.
# How the values were obtained:
# [1] = activity coefficient (dimensionless); of the first substance listed, at infinite dilution; xn = mol fraction of the nth substance listed; settings: 101 kPa, Liquid, circulation still, x1 = 0
# [2] = Excess molar heat capacity; xn = mol fraction of the nth substance listed; settings: 298.15 K; 101 kPa; Liquid; Flow calorimetry; x2 = 0
# [3] = 333.15 K, Rayleigh distillation
# [4] = 343.15 K, Rayleigh distillation
# [5] = 353.15 K, Rayleigh distillation
structure (smiles),measurement,setting,value
CN1CCCC1=O [N-methylpyrrolidone] + O,activity coefficient,"[1]; 333.15 K, differential distillation",1.34 ± 0.06
same,activity coefficient,"[1]; 343.15 K, differential distillation",1.56 ± 0.06
same,activity coefficient,"[1]; 353.15 K, differential distillation",1.75 ± 0.06
same,activity coefficient,"[1]; 372.85 K, differential distillation",2.07 ± 0.1
C1CCNCC1 [piperidine] + O,activity coefficient,[1]; [3],11.9 ± 0.1
same,activity coefficient,[1]; [4],14.7 ± 0.1
same,activity coefficient,[1]; [5],17.7 ± 0.1
same,activity coefficient,"[1]; 372.6 K, Rayleigh distillation",21 ± 0.1
c1ccncc1 [pyridine] + O,activity coefficient,[1]; [3],24 ± 0.1
same,activity coefficient,[1]; [4],25.5 ± 0.1
same,activity coefficient,[1]; [5],26 ± 0.1
same,activity coefficient,"[1]; 372.8 K, Rayleigh distillation",25.4 ± 0.1
O [water] + CN1CCCC1=O,molar heat capacity,[2],131 ± 2 J/K/mol
